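Following 48 hours of exposure in 96-well plates, responses at five concentrations were used to interpolate endpoints linearly. The concentration for 50% growth inhibition is given as GI50. TGI: total growth inhibition.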
What was measured:
Experiment in all cases: growth of human tumour cells (NCI), 48 h
OVCAR-8 ovarian = tested on: OVCAR-8 ovarian
OVCAR-4 ovarian = tested on: OVCAR-4 ovarian
SK-MEL-5 melanoma = tested on: SK-MEL-5 melanoma
IGROV1 ovarian = tested on: IGROV1 ovarian
UACC-62 melanoma = tested on: UACC-62 melanoma
PC-3 prostate = tested on: PC-3 prostate
SK-MEL-28 melanoma = tested on: SK-MEL-28 melanoma
EKVX NSCLC = tested on: EKVX NSCLC
NCI-H522 lung = tested on: NCI-H522 lung
SF-268 CNS = tested on: SF-268 CNS
ACHN renal = tested on: ACHN renal
OVCAR-5 ovarian = tested on: OVCAR-5 ovarian
HOP-62 NSCLC = tested on: HOP-62 NSCLC
SNB-75 CNS = tested on: SNB-75 CNS
SN12C renal = tested on: SN12C renal
NCI/ADR-RES ovarian = tested on: NCI/ADR-RES ovarian
HOP-92 NSCLC = tested on: HOP-92 NSCLC
MALME-3M melanoma = tested on: MALME-3M melanoma
OVCAR-3 ovarian = tested on: OVCAR-3 ovarian
SK-OV-3 ovarian = tested on: SK-OV-3 ovarian
DU-145 prostate = tested on: DU-145 prostate
K-562 leukemia = tested on: K-562 leukemia
HT29 colon = tested on: HT29 colon
T-47D breast = tested on: T-47D breast
786-0 renal = tested on: 786-0 renal
MDA-MB-231 breast = tested on: MDA-MB-231 breast
HCT-15 colon = tested on: HCT-15 colon
TK-10 renal = tested on: TK-10 renal
HCT-116 colon = tested on: HCT-116 colon
HS 578T breast = tested on: HS 578T breast
MDA-MB-435 = tested on: MDA-MB-435
UO-31 renal = tested on: UO-31 renal
RXF 393 renal = tested on: RXF 393 renal
COLO 205 colon = tested on: COLO 205 colon
SK-MEL-2 melanoma = tested on: SK-MEL-2 melanoma
SF-539 CNS = tested on: SF-539 CNS
SNB-19 CNS = tested on: SNB-19 CNS
HL-60(TB) leukemia = tested on: HL-60(TB) leukemia
CCRF-CEM leukemia = tested on: CCRF-CEM leukemia
SF-295 CNS = tested on: SF-295 CNS
U251 CNS = tested on: U251 CNS
A549 NSCLC = tested on: A549 NSCLC
MOLT-4 leukemia = tested on: MOLT-4 leukemia
M14 melanoma = tested on: M14 melanoma
UACC-257 melanoma = tested on: UACC-257 melanoma
MCF7 breast = tested on: MCF7 breast
SW-620 colon = tested on: SW-620 colon
NCI-H460 lung = tested on: NCI-H460 lung
LOX IMVI melanoma = tested on: LOX IMVI melanoma
KM12 colon = tested on: KM12 colon
SR leukemia = tested on: SR leukemia
HCC-2998 colon = tested on: HCC-2998 colon
RPMI-8226 leukemia = tested on: RPMI-8226 leukemia
NCI-H23 lung = tested on: NCI-H23 lung
CAKI-1 renal = tested on: CAKI-1 renal

`COc1cccc2c1C(=O)c1c(O)c3c(c(O)c1C2=O)CC(O)(C(C)=O)CC3OC1OC(COC(C)=O)C(OC(C)=O)C(OC(C)=O)C1OC(C)=O` (configuration not stated) was tested, and the TGI (OVCAR-8 ovarian) was 37.2 µM, the TGI (OVCAR-4 ovarian) was 53.3 µM and the TGI (SK-MEL-5 melanoma) was greater than 100 µM. For the same compound, the TGI (IGROV1 ovarian) was 47.5 µM, the TGI (UACC-62 melanoma) was greater than 100 µM and the TGI (PC-3 prostate) was greater than 100 µM. For the same compound, the TGI (SK-MEL-28 melanoma) was greater than 100 µM, the TGI (EKVX NSCLC) was 27.4 µM and the TGI (NCI-H522 lung) was greater than 100 µM. For the same compound, the TGI (SF-268 CNS) was 55.1 µM, the TGI (ACHN renal) was 87.6 µM and the TGI (OVCAR-5 ovarian) was 96.6 µM. It also gave a TGI (HOP-62 NSCLC) of 33.2 µM, a TGI (SNB-75 CNS) of 27 µM and a TGI (SN12C renal) greater than 100 µM. It also gave a TGI (NCI/ADR-RES ovarian) greater than 100 µM, a TGI (HOP-92 NSCLC) of 32.2 µM and a TGI (MALME-3M melanoma) greater than 100 µM. It also gave a TGI (OVCAR-3 ovarian) of 31.2 µM, a TGI (SK-OV-3 ovarian) greater than 100 µM and a TGI (DU-145 prostate) greater than 100 µM. For the same compound, the TGI (K-562 leukemia) was greater than 100 µM, the TGI (HT29 colon) was greater than 100 µM and the TGI (T-47D breast) was greater than 100 µM. It also gave a TGI (786-0 renal) of 56.3 µM, a TGI (MDA-MB-231 breast) of 63.7 µM and a TGI (HCT-15 colon) greater than 100 µM. The TGI (TK-10 renal) was 61.8 µM, the TGI (HCT-116 colon) was greater than 100 µM and the TGI (HS 578T breast) was 64.8 µM. The TGI (MDA-MB-435) was greater than 100 µM, the TGI (UO-31 renal) was greater than 100 µM and the TGI (RXF 393 renal) was 7.25 µM. The TGI (COLO 205 colon) was greater than 100 µM, the TGI (SK-MEL-2 melanoma) was greater than 100 µM and the TGI (SF-539 CNS) was 39.7 µM. For the same compound, the TGI (SNB-19 CNS) was 42.1 µM, the TGI (HL-60(TB) leukemia) was greater than 100 µM and the TGI (CCRF-CEM leukemia) was 0.131 µM. For the same compound, the TGI (SF-295 CNS) was 62.8 µM, the TGI (U251 CNS) was 27.5 µM and the TGI (A549 NSCLC) was greater than 100 µM. The TGI (MOLT-4 leukemia) was 36.9 µM, the TGI (M14 melanoma) was greater than 100 µM and the TGI (UACC-257 melanoma) was 36.6 µM. For the same compound, the TGI (MCF7 breast) was greater than 100 µM, the TGI (SW-620 colon) was greater than 100 µM and the TGI (NCI-H460 lung) was greater than 100 µM. It also gave a TGI (LOX IMVI melanoma) greater than 100 µM, a TGI (KM12 colon) greater than 100 µM and a TGI (SR leukemia) of 25.8 µM.

With `CC1OC(OC2C(O)C(OCCc3ccc(O)c(O)c3)OC(CO)C2OC(=O)/C=C/c2ccc(O)c(O)c2)C(O)C(O)C1O` (configuration not stated) the GI50 (OVCAR-8 ovarian) was greater than 100 µM, the TGI (OVCAR-8 ovarian) was greater than 100 µM and the GI50 (OVCAR-4 ovarian) was greater than 100 µM. For the same compound, the TGI (OVCAR-4 ovarian) was greater than 100 µM, the GI50 (SK-MEL-5 melanoma) was greater than 100 µM and the TGI (SK-MEL-5 melanoma) was greater than 100 µM. The GI50 (IGROV1 ovarian) was 47.6 µM, the TGI (IGROV1 ovarian) was greater than 100 µM and the GI50 (UACC-62 melanoma) was 19.1 µM. It also gave a TGI (UACC-62 melanoma) of 45.5 µM, a GI50 (PC-3 prostate) greater than 100 µM and a TGI (PC-3 prostate) greater than 100 µM. It also gave a GI50 (SK-MEL-28 melanoma) of 52.7 µM, a TGI (SK-MEL-28 melanoma) greater than 100 µM and a GI50 (EKVX NSCLC) of 27.6 µM. The TGI (EKVX NSCLC) was greater than 100 µM, the GI50 (HCC-2998 colon) was 19 µM and the TGI (HCC-2998 colon) was 35.6 µM. For the same compound, the GI50 (RPMI-8226 leukemia) was 42.4 µM, the TGI (RPMI-8226 leukemia) was greater than 100 µM and the GI50 (NCI-H522 lung) was greater than 100 µM. It also gave a TGI (NCI-H522 lung) greater than 100 µM, a GI50 (SF-268 CNS) greater than 100 µM and a TGI (SF-268 CNS) greater than 100 µM. It also gave a GI50 (ACHN renal) of 18.9 µM, a TGI (ACHN renal) of 37 µM and a GI50 (NCI-H23 lung) greater than 100 µM. For the same compound, the TGI (NCI-H23 lung) was greater than 100 µM, the GI50 (OVCAR-5 ovarian) was 19.6 µM and the TGI (OVCAR-5 ovarian) was 39 µM. It also gave a GI50 (HOP-62 NSCLC) greater than 100 µM, a TGI (HOP-62 NSCLC) greater than 100 µM and a GI50 (SN12C renal) of 20.5 µM. It also gave a TGI (SN12C renal) of 36.8 µM, a GI50 (NCI/ADR-RES ovarian) greater than 100 µM and a TGI (NCI/ADR-RES ovarian) greater than 100 µM. The GI50 (HOP-92 NSCLC) was greater than 100 µM, the TGI (HOP-92 NSCLC) was greater than 100 µM and the GI50 (OVCAR-3 ovarian) was 27.4 µM. The TGI (OVCAR-3 ovarian) was 79.7 µM, the GI50 (SK-OV-3 ovarian) was greater than 100 µM and the TGI (SK-OV-3 ovarian) was greater than 100 µM. The GI50 (DU-145 prostate) was 13.5 µM, the TGI (DU-145 prostate) was 27.4 µM and the GI50 (K-562 leukemia) was 15.5 µM. The TGI (K-562 leukemia) was greater than 100 µM, the GI50 (T-47D breast) was greater than 100 µM and the TGI (T-47D breast) was greater than 100 µM. It also gave a GI50 (786-0 renal) of 14.5 µM, a TGI (786-0 renal) of 36.3 µM and a GI50 (MDA-MB-231 breast) of 16.3 µM. The TGI (MDA-MB-231 breast) was 34.7 µM, the GI50 (HCT-15 colon) was greater than 100 µM and the TGI (HCT-15 colon) was greater than 100 µM. The GI50 (TK-10 renal) was greater than 100 µM, the TGI (TK-10 renal) was greater than 100 µM and the GI50 (HCT-116 colon) was greater than 100 µM. For the same compound, the TGI (HCT-116 colon) was greater than 100 µM, the GI50 (HS 578T breast) was greater than 100 µM and the TGI (HS 578T breast) was greater than 100 µM. The GI50 (MDA-MB-435) was 39.7 µM, the TGI (MDA-MB-435) was greater than 100 µM and the GI50 (UO-31 renal) was 23.7 µM. It also gave a TGI (UO-31 renal) of 57.6 µM, a GI50 (COLO 205 colon) greater than 100 µM and a TGI (COLO 205 colon) greater than 100 µM. It also gave a GI50 (SK-MEL-2 melanoma) greater than 100 µM, a TGI (SK-MEL-2 melanoma) greater than 100 µM and a GI50 (SF-539 CNS) of 22.9 µM. For the same compound, the TGI (SF-539 CNS) was 40.9 µM, the GI50 (SNB-19 CNS) was greater than 100 µM and the TGI (SNB-19 CNS) was greater than 100 µM. For the same compound, the GI50 (HL-60(TB) leukemia) was 14.9 µM, the TGI (HL-60(TB) leukemia) was greater than 100 µM and the GI50 (CAKI-1 renal) was 40 µM. The TGI (CAKI-1 renal) was greater than 100 µM, the GI50 (SF-295 CNS) was 31.5 µM and the TGI (SF-295 CNS) was greater than 100 µM. For the same compound, the GI50 (A549 NSCLC) was greater than 100 µM, the TGI (A549 NSCLC) was greater than 100 µM and the GI50 (M14 melanoma) was greater than 100 µM. It also gave a TGI (M14 melanoma) greater than 100 µM, a GI50 (UACC-257 melanoma) greater than 100 µM and a TGI (UACC-257 melanoma) greater than 100 µM. It also gave a GI50 (MCF7 breast) of 32.9 µM, a TGI (MCF7 breast) greater than 100 µM and a GI50 (SW-620 colon) of 28.7 µM. It also gave a TGI (SW-620 colon) of 72 µM, a GI50 (NCI-H460 lung) greater than 100 µM and a TGI (NCI-H460 lung) greater than 100 µM. The GI50 (LOX IMVI melanoma) was 18.2 µM, the TGI (LOX IMVI melanoma) was 36 µM and the GI50 (KM12 colon) was greater than 100 µM. It also gave a TGI (KM12 colon) greater than 100 µM, a GI50 (SR leukemia) of 0.634 µM and a TGI (SR leukemia) greater than 100 µM.
